# From patent publication US12252481B2, “Anti-viral compounds” (Aligos Therapeutics, Inc., priority 2021, dated 2025)
# Key:
# SARS-Cov-2 3CLpro = molecular target: T1, SARS-Cov-2 3CLpro (Severe acute respiratory syndrome coronavirus 2, UniProt P0DTD1); experiment: biochemical; conditions: 3CLpro, 30 mins preincubation, SAMDI-MS; read-out: SARS-Cov-2 IC50 (class)
# T1 construct: 3CLpro and HRV3C was added using a Multidrop Combi
# HRV3C = molecular target: T2, HRV3C (Human rhinovirus 14, UniProt P03303); experiment: biochemical; set-up: species or system HRV; conditions: HRV3C, 30 mins preincubation, SAMDI-MS; read-out: HRV IC50 (bound)
# T2 construct: 3CLpro and HRV3C was added using a Multidrop Combi
# [1] = tested on: human beta-coronavirus OC43; experiment: OC43 coronavirus antiviral assay in HeLa cells (cytopathic effect, cell-titer-glo); type: cell-based; conditions: Betacoronavirus 1, OC43, HeLa, 144 h, 6 days at 33° C., read-out: EC50 (class)
# [2] = tested on: B.1.1.7 lineage SARS-CoV-2; experiment: microbe, parasite or virus in culture; type: cell-based; conditions: Severe acute respiratory syndrome coronavirus 2, 96 h; read-out: A549-dual_ACE2_TMPRSS2 (EC50)
# human cathepsin L = molecular target: T3, human cathepsin L (Homo sapiens, UniProt P07711); experiment: Cathepsin L assay (Z-FR-AMC fluorescence); type: biochemical; conditions: 10 pM human cathepsin L, 30 mins preincubation, Z-FR-AMC 2 μM
# T3 construct: purchased R&D Systems
# Protocol: For the cathepsin L assay, 10 pM of human cathepsin L (R&D Systems; Minneapolis, MN) was preincubated for 30 mins with test compounds. Reactions were initiated by the addition of a peptide substrate Z—FR-AMC (final concentration 2 μM, Anaspec; Fremont, CA). Fluorescence was measured at 2-minute intervals for 30 mins using a 355/460 excitation/emission filter module on an Envision plate reader (Perkin Elmer; Waltham, MA). The IC50 values were calculated for each assay by fitting the curves using a four-parameter equation in GraphPad Prism.
# T2 sequence (P03303 1538-1719): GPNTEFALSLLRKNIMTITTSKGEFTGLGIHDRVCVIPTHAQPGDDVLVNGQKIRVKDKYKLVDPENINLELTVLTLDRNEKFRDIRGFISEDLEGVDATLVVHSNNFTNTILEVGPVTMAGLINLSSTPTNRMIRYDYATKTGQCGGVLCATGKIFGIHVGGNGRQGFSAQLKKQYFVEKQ
# T3 sequence (P07711 114-333): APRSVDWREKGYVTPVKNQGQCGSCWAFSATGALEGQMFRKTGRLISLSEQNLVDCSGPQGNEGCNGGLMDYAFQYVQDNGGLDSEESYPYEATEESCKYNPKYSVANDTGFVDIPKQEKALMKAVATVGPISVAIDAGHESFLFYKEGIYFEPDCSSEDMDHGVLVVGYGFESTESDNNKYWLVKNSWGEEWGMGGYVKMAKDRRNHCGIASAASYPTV
Structure (SMILES),IC50 (SARS-Cov-2 3CLpro),IC50 (HRV3C),EC50 [1],EC50 [2],IC50 (human cathepsin L)
CC(C)(F)C(=O)N[C@H](C(=O)N1C[C@H]2[C@@H]([C@H]1C(=O)N[C@H](C#N)C[C@@H]1CCNC1=O)[C@H]1C=C[C@@H]2C1)C(C)(C)C [Compound 74],< 20 nM,> 10000 nM,< 100 nM,< 100 nM,≥ 10000 nM
CC(C)(C)[C@H](NC(=O)C(C)(C)C(F)(F)F)C(=O)N1C[C@H]2[C@@H]([C@H]1C(=O)N[C@H](C#N)C[C@@H]1CCNC1=O)[C@H]1C=C[C@@H]2C1 [Compound 75],< 20 nM,> 10000 nM,100 to 1000 nM,< 100 nM,≥ 10000 nM
"CC(C)(C)[C@H](NC(=O)C(F)(F)C(F)(F)F)C(=O)N1C[C@H]2[C@@H]([C@H]1C(=O)N[C@H](C#N)C[C@@H]1CCNC1=O)[C@H]1C=C[C@@H]2C1 [Compound 76, (1S,3aR,4S,7R,7aS)-N-((S)-1-cyano-2-((S)-2-oxopyrrolidin-3-yl)ethyl)-2-((S)-3,3-dimethyl-2-(2,2,3,3,3-pentafluoropropanamido)butanoyl)-2,3,3a,4,7,7a-hexahydro-1H-4,7-methanoisoindole-1-carboxamide]",< 20 nM,> 10000 nM,< 100 nM,< 100 nM,≥ 10000 nM
COC(C)(C)C(=O)N[C@H](C(=O)N1C[C@H]2[C@@H]([C@H]1C(=O)N[C@H](C#N)C[C@@H]1CCNC1=O)[C@H]1C=C[C@@H]2C1)C(C)(C)C [Compound 77],20 to 200 nM,> 10000 nM,1000 to 10000 nM,100 to 1000 nM,≥ 10000 nM
CO[C@](C)(C(=O)N[C@H](C(=O)N1C[C@H]2[C@@H]([C@H]1C(=O)N[C@H](C#N)C[C@@H]1CCNC1=O)[C@H]1C=C[C@@H]2C1)C(C)(C)C)C(F)(F)F [Compound 78],20 to 200 nM,> 10000 nM,1000 to 10000 nM,100 to 1000 nM,≥ 10000 nM
"COCC(C)(C)[C@H](NC(=O)C(F)(F)C(F)(F)F)C(=O)N1C[C@H]2[C@@H]([C@H]1C(=O)N[C@H](C#N)C[C@@H]1CCNC1=O)[C@H]1C=C[C@@H]2C1 [Compound 100, (1S,3aR,4S,7R,7aS)-N-((S)-1-cyano-2-((S)-2-oxopyrrolidin-3-yl)ethyl)-2-((S)-4-methoxy-3,3-dimethyl-2-(2,2,3,3,3-pentafluoropropanamido)butanoyl)-2,3,3a,4,7,7a-hexahydro-1H-4,7-methanoisoindole-1-carboxamide]",< 20 nM,> 500 nM,< 100 nM,< 100 nM,≥ 10000 nM
"CC(C)(C)[C@H](NC(=O)C(F)(F)F)C(=O)N1C[C@H]2[C@@H]([C@H]1C(=O)N[C@H](C#N)C[C@@H]1Oc3ccncc3NC1=O)[C@H]1C=C[C@@H]2C1 [Compound 109, (1S,3aR,4S,7R,7aS)-N-((S)-1-cyano-2-((S)-3-oxo-3,4-dihydro-2H-pyrido[4,3-b][1,4]oxazin-2-yl)ethyl)-2-((S)-3,3-dimethyl-2-(2,2,2-trifluoroacetamido)butanoyl)-2,3,3a,4,7,7a-hexahydro-1H-4,7-methanoisoindole-1-carboxamide]",< 20 nM,> 500 nM,< 100 nM,< 100 nM,≥ 10000 nM
"CC(C)(C)[C@H](NC(=O)C(F)(F)F)C(=O)N1C[C@H]2[C@@H]([C@H]1C(=O)N[C@H](C#N)C[C@@H]1OCCNC1=O)[C@H]1C=C[C@@H]2C1 [Compound 114, (1S,3aR,4S,7R,7aS)-N-((S)-1-cyano-2-((S)-3-oxomorpholin-2-yl)ethyl)-2-((S)-3,3-dimethyl-2-(2,2,2-trifluoroacetamido)butanoyl)-2,3,3a,4,7,7a-hexahydro-1H-4,7-methanoisoindole-1-carboxamide]",< 20 nM,> 500 nM,< 100 nM,< 100 nM,≥ 10000 nM
"CC(C)(C)[C@H](NC(=O)C(F)(F)Cl)C(=O)N1C[C@H]2[C@@H]([C@H]1C(=O)N[C@H](C#N)C[C@@H]1CCNC1=O)[C@H]1C=C[C@@H]2C1(F)F [Compound 128, (1R,2R,3S,6S,7S)-4-[(2S)-2-(2-chloro-2,2-difluoroacetamido)-3,3-dimethylbutanoyl]-N-[(1S)-1-cyano-2-[(3S)-2-oxopyrrolidin-3-yl]ethyl]-10,10-difluoro-4-azatricyclo[5.2.1.0^{2,6}]dec-8-ene-3-carboxamide]",< 20 nM,> 500 nM,< 100 nM,< 100 nM,≥ 10000 nM
